Experimental data from PMC8244912, “An oxytocin/vasopressin-related neuropeptide modulates social foraging behavior in the clonal raider ant” (PLoS Biology, 2021).
Entries after “also recorded” stand apart in the source; their conditions may differ. Where a SMILES comes first, the peptide text is derived from it. Bridges are numbered along the chain shown (N, C = ends).

Legend:
[1] = system: Ooceraea biroi ants; assay: Pharmacological immersion, mixed-age colonies: ants outside the nest (S9 Fig); assay type: in vivo; conditions: immersion in 1 mM; mixed-age colonies with larvae; 5 hours; n = 6; p = 0.0002, extra sum-of-squares F-test
Excerpt: (§1) Mature O. biroi inotocin peptide (CLITNCPRG) was synthesized and cyclized at The Rockefeller University Proteomics Resource Center, along with a scrambled version of the peptide (NRPCGLTCI) as a negative control with identical amino acid composition.
For the initial experiment (S9 Fig), we set up 6 experimental colonies of line B ants that were color tagged as previously described. Each colony consisted of 16 ants in an airtight Petri dish with a 5-cm diameter; 8 age-matched 4-week-old and 8 age-matched approximately 20-week-old ants. We added ten 3- to 4-day-old larvae to the colonies. We used Logitech (Lausanne, Switzerland) C910 USB cameras to record 5 hours after the treatments, and we used ImageJ to split the videos in batches of 5,000 frames (corresponding to 18.75-minute intervals). We sampled every 10th frame from the 5,000 frames and overlaid the resulting 500 frames into a single image using ImageJ. In each image, we manually counted the number of instances of ants that were outside the nest as a proxy for foraging behavior. Color tagging was used to differentiate inotocin treated from mock treated and untreated ants. The nest was defined as a region of high density of ants in the 500 image projections.
On the day of the experiment, colonies were not fed. To avoid disturbance to the colony as much as possible, half the colony was left untreated, and half was treated. […]

[2] = system: O. biroi inotocin receptor splice variant ObiroiItr_H (lacks TM4-7); assay: Calcium imaging (fura-2), truncated receptor isoform H; assay type: cell-based, Ooceraea biroi
Protocol: The full-length inotocin receptor cDNA sequence that was cloned and used for calcium assays is ObiroiItr_A (GenBank MW660838; for protein sequence, see S1 Fig). We also tested splice variant ObiroiItr_H (GenBank MW660845; for protein sequence, see S1 Fig), which lacks TM4-7, for calcium activity.
(§2) Experiments were conducted following Garrison J.L., et al 2012 [8] with modifications. Human embryonic kidney 293T cells (HEK293T) were cultured in DMEM and supplemented with 10% FBS at 37 °C in a cell incubator containing 5% CO^2. Cells were grown in 35 mm MatTek glass bottom dishes to a level of 60 – 70% confluency. Cells were transfected with a 1:1 ratio of PCDNA3.3 containing ~ 1μg of itcR cDNA (full-length isoform A or truncated isoform H) (See S1 Fig for isoforms) and pcDNA3-alpha 16 (encoding promiscuous G protein 16) using Lipofectamine 2000. Cells were incubated for 24 h at 37 °C and then transferred to 28 °C for another 16-24 h. For control experiments, empty vector was also transfected. On the day of the experiment, the cells were loaded with […] fura-2/AM (Invitrogen) for 25 min at 37 °C. Inotocin peptide diluted in Ringer’s solution was applied to the cells for 15 s with a peristaltic pump, and fluorescence at 510 nm was monitored (excitation at 340/380 nm) using a MetaFluor calcium imaging system with a Nikon Eclipse TE2000U microscope.

[3] = system: Ooceraea biroi ants; assay: Pharmacological immersion, age- and brood-controlled colonies: distance traveled (automated tracking); assay type: in vivo; conditions: for foraging activity / distance traveled vs control peptide: immersion in 1 mM, 5 h, n = 20 ants
Excerpt: as §1
For the full experiment (Fig 3), we set up 20 experimental colonies of line B ants that were color painted as previously described. Each colony consisted of 16 ants in an airtight Petri dish with 5-cm diameter. Eight ants in each colony were 3 weeks old, and 8 ants in each colony were 20 weeks old. We added ten 3- to 4-day-old larvae to each of 10 colonies and 10 white (young) pupae to each of the remaining 10 colonies. Brood items often die soon after introduction to a colony, so we added 2 extra brood items per colony to ensure there were 8 alive at the start of the experiment. After the ants had settled for 3 days, we adjusted the number of brood items to 8 per colony, after which we performed the pharmacological treatments. The rationale of having a 1:2 larvae-to-workers ratio in this experiment was to assess the possible effect of increased inotocin levels on worker behavior without saturating the brood signal, as ant larvae regulate worker foraging behavior in a dose-dependent manner.
On the day of the experiment, colonies were not fed. To avoid disturbance to the colony as much as possible, half the colony was left untreated, and half was treated. The treatments consisted of immersing the ants in 1 mM solution of freshly dissolved inotocin or control peptide diluted in water and kept on ice. The immersion took place in 1.5-ml Eppendorf tubes that were gently tapped against the bench top for 7 consecutive minutes, after which the liquid was removed using a 1.5-ml transfer pipette. The remaining liquid was removed with a Kimwipe, and ants were transferred to their source colony. In each colony, we treated 2 ants per age category with inotocin and 2 ants per age category with the control peptide. Ants were allowed to recover for 1 hour after the treatment before the start of the video recordings.
Videos were recorded for 5 hours at 5 frames per second using Logitech C910 USB cameras. Individual ants were tracked using anTraX [85]. In short, ants were segmented using a background subtraction and fixed threshold procedure. Blobs in consecutive frames were threaded into sequences using the Horn–Schunk optical flow method and then classified as single ants or multiple ants based on blob size and linkage criteria. Single ant blob sequences were classified into their appropriate IDs as detailed in [85]. Ants that were detected as single blobs were deemed “active,” and their location was recorded (Fig 3B). The activity level of an ant was defined as the total distance traveled, and an activity time course was created for each ant by summing its activity in time bins of 15 minutes for the entire duration of the experiment. All ants in a colony were tracked. The activity across ants from a given condition from all experimental colonies was averaged in each time bin. The resulting curves were fitted with first- or second-order polynomials using nonlinear regression (least squares fit). The fitted curves were compared using extra sum-of-squares F-tests to select for the best fitted model and to compare between fitted curves, and statistical significance thresholds were adjusted for 2 comparisons within experiments using Bonferroni corrections (old inotocin versus old mock and young inotocin versus young mock). […]

[4] = system: HEK293T cells transfected with an empty vector; assay: Calcium imaging (fura-2), empty vector; assay type: cell-based, human
Protocol: as §2

CC[C@H](C)[C@@H]1NC(=O)[C@H](CC(C)C)NC(=O)[C@@H](N)CSSC[C@@H](C(=O)N2CCC[C@H]2C(=O)N[C@@H](CCCNC(=N)N)C(=O)NCC(N)=O)NC(=O)[C@H](CC(N)=O)NC(=O)[C@H]([C@@H](C)O)NC1=O [Inotocin] (H-CLITNCPRG-NH2; disulfide 1-6; N-terminus and C-terminus assumed)
time/instances outside the nest vs scrambled control peptide [1]: spent more time outside the nest than controls; also recorded: foraged more when treated with inotocin than when treated with the control peptide | calcium signal [2]: no response to inotocin; also recorded: No calcium signal is detected; also recorded: does not respond to inotocin | foraging activity / distance traveled vs control peptide ([3]; old ants, larvae present, p < 0.0002, Bonferroni corrected): forage more than old ants treated with a control peptide; also recorded: displayed increased foraging activity in the presence of larvae; also recorded: had higher average distance traveled than ants under any other experimental condition | foraging activity / distance traveled vs control peptide ([3]; old ants, pupae present, p = 0.998, p > 0.99, Bonferroni corrected): no difference in foraging activity was found; also recorded: no effect of inotocin treatment was observed | tendency to leave the nest ([3]; overall statement, contingent on age and social context): increases the tendency of ants to leave the nest | foraging activity / distance traveled vs control peptide ([3]; young ants, larvae present, p = 0.106, p = 0.109, Bonferroni corrected): No difference in foraging activity was detected; also recorded: no behavioral difference | foraging activity / distance traveled vs control peptide ([3]; young ants, pupae present, p < 0.0002, Bonferroni corrected): foraged more when treated with inotocin; also recorded: slightly increased their activity; also recorded: increased their average distance traveled compared to ants under any other experimental condition | calcium signal [4]: No calcium signal is detected
